From US20180369195A1, “COMBINATION THERAPY FOR TREATMENT OF MELANOMA” (The Regents of the University of California, priority 2015, published 2018)

Columns and labels:
Type in all cases: cell-based, human
[1] = system: β-catenin; test: Western blot of β-catenin; settings: G361, SK-MEL-2 cells pre-treated 3 hours with GSK3β inhibitor, then 20 μM 1-benzyl I3C 24 hours
Source text: The western blots employed the following primary antibodies: mouse anti-MITF-M (Thermo-scientific), mouse anti-HSP 90 (BD Biosciences), mouse anti-CDK2, rabbit anti-CDK4, rabbit anti-CDK-6, mouse anti-rabbit BRAF, goat anti-LEF-1, rabbit anti-AXIN, mouse anti-BCL2, (Santa Cruz), rabbit anti-P21, mouse anti-Cyclin D1, rabbit anti-MEK-p, rabbit anti-MEK1/2, rabbit anti-GSK3β rabbit anti-LRP6, rabbit anti-LRP6-phospho (Cell signaling), mouse anti-β-catenin (Invitrogen).

[2] = system: MITF-M; test: MITF-M protein levels in cultured melanoma cells (western blot, immunofluorescence); settings: for MITF-M protein levels (western blot): G-361 cells, 48 hours, 200 μM I3C, 10 μM Vemurafenib or 10 μM U0126
Experimental: (§1) Western Blot analyses of samples electrophoretically fractionated on 12% acrylamide gels were carried out as previously described (Wagle et al., J. Clin. Oncol. 2011. 29(22):3085-3096; Nguyen et al., Chem. Biol. Interact. 2010. 186(3):255-266). Enhanced chemiluminescence (ECL) Lightening reagents were used to visualize the primary antibody bound protein bands in nitrocellulose membranes and the results captured on ECL Autoradiography Film (GE Healthcare, Piscataway, N.J.). The western blots employed the following primary antibodies: mouse anti-MITF-M (Thermo-scientific), mouse anti-HSP 90 (BD Biosciences), mouse anti-CDK2, rabbit anti-CDK4, rabbit anti-CDK-6, mouse anti-rabbit BRAF, goat anti-LEF-1, rabbit anti-AXIN, mouse anti-BCL2, (Santa Cruz), rabbit anti-P21, mouse anti-Cyclin D1, rabbit anti-MEK-p, rabbit anti-MEK1/2, rabbit anti-GSK3β rabbit anti-LRP6, rabbit anti-LRP6-phospho (Cell signaling), mouse anti-β-catenin (Invitrogen).

[3] = system: CDK4; test: Western blot of CDK4; settings: G-361 cells, 48 hours; 200 μM I3C, 10 μM Vemurafenib or 10 μM U0126
Experimental: as §1

[4] = system: phosphorylated Erk/MAPK; test: Western blot of phosphorylated Erk/MAPK; settings: G-361 cells, 48 hours; 200 μM I3C, 10 μM Vemurafenib or 10 μM U0126
Experimental: (§2) Western Blot analyses of samples electrophoretically fractionated on 12% acrylamide gels were carried out as previously described (Wagle et al., J. Clin. Oncol. 2011. 29(22):3085-3096; Nguyen et al., Chem. Biol. Interact. 2010. 186(3):255-266). […] The western blots employed the following primary antibodies: mouse anti-MITF-M (Thermo-scientific), mouse anti-HSP 90 (BD Biosciences), mouse anti-CDK2, rabbit anti-CDK4, rabbit anti-CDK-6, mouse anti-rabbit BRAF, goat anti-LEF-1, rabbit anti-AXIN, mouse anti-BCL2, (Santa Cruz), rabbit anti-P21, mouse anti-Cyclin D1, rabbit anti-MEK-p, rabbit anti-MEK1/2, rabbit anti-GSK3β rabbit anti-LRP6, rabbit anti-LRP6-phospho (Cell signaling), mouse anti-β-catenin (Invitrogen).

[5] = system: phosphorylated MEK; test: Western blot of phosphorylated MEK; settings: G361 and DM738 cells, 10 μM Vemurafenib, 24 hours
Experimental: as §2

[6] = system: SK-MEL-2 cells; test: CCK-8 proliferation assay, SK-MEL-2; settings: 48 hours
Experimental: […] Cells were treated with 20 μM 1-benzyl I3C every 24 hours for 72 hours and harvested at 24, 48 and 72 hours for western blot and flow cytometric analysis. Cells were treated with 20 μM LiCl or 10 μM BIO for 48 hours before harvesting them for western blots.
Subsequently inhibition of proliferation was assessed using Cell counting Kit-8 (Dojindo) as per the protocol in the user's manual. Briefly, 50 μl of the CCK-8 solution was added to each well along with 450 μl media and incubated for 2-3 hours. The absorbance was read at 450 nm and % inhibition was calculated for each condition standardizing DMSO to zero using the formula: [(100−Value of treatment/Value of DMSO treated control)×100]

| Molecule | rescue of 1-benzyl I3C induced downregulation of β-catenin, MITF-M, CDK2, BCl2 [1] | MITF-M protein levels (western blot) [2] | CDK4 protein levels [3] | phosphorylated Erk/MAPK levels [4] | sensitivity of MITF-M inhibition to Vemurafenib ([2]; SK-MEL-2 cells (wild-type BRAF), 10 μM Vemurafenib, 24 hours) | MEK-P levels [5] | antiproliferation in wild-type BRAF cells [6] |
| --- | --- | --- | --- | --- | --- | --- | --- |
| O=C1Nc2cc(Br)ccc2/C1=C1/Nc2ccccc2/C1=N\O [BIO, 6-bromoindirubin-3′-oxime] | significant rescue |  |  |  |  |  |  |
| [Cl-].[Li+] [LiCl, Lithium Chloride] | significant rescue |  |  |  |  |  |  |
| N#CC(=C(/N)Sc1ccccc1N)/C(C#N)=C(\N)Sc1ccccc1N [U0126, reference compound] |  | down regulated | down regulated | down regulated |  |  |  |
| Vemurafenib [reference compound] |  | down regulated | down regulated | down regulated | not sensitive to Vemurafenib action | downregulated MEK-P | ineffective |
